For five molecules, IC50 and Selectivity results are on record in ChEMBL document CHEMBL1127403, “L-N6-(1-iminoethyl)lysine: a selective inhibitor of inducible nitric oxide synthase” (J Med Chem, 1994).

The target in one experiment is Nitric oxide synthase 1 (Rattus norvegicus, UniProt P29476). The experiment in a line: Tested for inhibition of rat brain […] nitric oxide synthase.
Chain of Nitric oxide synthase 1 (P29476 whole entry): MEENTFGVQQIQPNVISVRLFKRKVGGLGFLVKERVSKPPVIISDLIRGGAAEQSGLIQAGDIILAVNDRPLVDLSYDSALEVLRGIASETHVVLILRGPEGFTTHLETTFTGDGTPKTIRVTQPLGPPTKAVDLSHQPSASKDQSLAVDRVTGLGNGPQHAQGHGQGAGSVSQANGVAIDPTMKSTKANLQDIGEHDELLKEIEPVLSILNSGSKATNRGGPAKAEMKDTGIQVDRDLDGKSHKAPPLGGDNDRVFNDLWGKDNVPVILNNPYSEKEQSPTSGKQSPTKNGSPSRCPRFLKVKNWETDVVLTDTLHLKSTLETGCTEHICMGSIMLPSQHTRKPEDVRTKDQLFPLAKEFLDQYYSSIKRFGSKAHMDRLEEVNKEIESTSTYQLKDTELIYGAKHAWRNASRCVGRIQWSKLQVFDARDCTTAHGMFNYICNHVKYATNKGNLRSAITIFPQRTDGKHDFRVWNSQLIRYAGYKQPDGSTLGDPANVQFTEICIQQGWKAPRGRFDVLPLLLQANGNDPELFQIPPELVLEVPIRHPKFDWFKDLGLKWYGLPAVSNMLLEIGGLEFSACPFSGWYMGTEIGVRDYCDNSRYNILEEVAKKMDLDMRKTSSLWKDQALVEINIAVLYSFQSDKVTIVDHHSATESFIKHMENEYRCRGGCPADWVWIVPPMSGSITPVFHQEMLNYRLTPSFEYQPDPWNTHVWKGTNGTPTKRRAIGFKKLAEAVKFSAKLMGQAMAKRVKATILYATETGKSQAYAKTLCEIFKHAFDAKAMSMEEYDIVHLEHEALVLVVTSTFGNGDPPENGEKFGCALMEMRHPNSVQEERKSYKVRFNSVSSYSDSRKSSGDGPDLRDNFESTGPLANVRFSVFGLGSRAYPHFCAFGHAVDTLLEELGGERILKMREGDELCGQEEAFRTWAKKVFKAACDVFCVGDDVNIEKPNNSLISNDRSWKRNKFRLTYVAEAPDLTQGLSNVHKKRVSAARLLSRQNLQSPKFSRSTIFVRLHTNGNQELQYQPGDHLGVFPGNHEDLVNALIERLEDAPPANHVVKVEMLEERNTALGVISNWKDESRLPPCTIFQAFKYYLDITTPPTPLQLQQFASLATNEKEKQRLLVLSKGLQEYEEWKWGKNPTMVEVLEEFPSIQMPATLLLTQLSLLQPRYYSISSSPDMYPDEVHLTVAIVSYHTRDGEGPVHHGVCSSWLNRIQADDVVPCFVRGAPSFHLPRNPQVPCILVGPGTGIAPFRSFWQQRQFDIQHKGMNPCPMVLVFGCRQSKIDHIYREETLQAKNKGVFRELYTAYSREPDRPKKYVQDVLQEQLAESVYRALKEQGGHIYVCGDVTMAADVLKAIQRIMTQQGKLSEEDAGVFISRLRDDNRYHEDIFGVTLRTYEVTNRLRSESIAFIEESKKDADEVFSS
`CC(=N)NCCCC[C@@H](N)C(=O)O` showed an IC50 of 2800 µM.
Consider `CC(=N)NCCCCCC(N)C(=O)O` (racemic), for which the 50% inhibitory concentration (IC50) worked out at 808 µM.
On the same count and under the same terms, as for `CC(=N)NCCCC[C@H](N)C(=O)O` [L-NIL], the figure is 92 µM.

The target in a further experiment is T1, Nitric oxide synthase, inducible (Mus musculus, UniProt P29477).
T1 sequence (P29477 whole entry): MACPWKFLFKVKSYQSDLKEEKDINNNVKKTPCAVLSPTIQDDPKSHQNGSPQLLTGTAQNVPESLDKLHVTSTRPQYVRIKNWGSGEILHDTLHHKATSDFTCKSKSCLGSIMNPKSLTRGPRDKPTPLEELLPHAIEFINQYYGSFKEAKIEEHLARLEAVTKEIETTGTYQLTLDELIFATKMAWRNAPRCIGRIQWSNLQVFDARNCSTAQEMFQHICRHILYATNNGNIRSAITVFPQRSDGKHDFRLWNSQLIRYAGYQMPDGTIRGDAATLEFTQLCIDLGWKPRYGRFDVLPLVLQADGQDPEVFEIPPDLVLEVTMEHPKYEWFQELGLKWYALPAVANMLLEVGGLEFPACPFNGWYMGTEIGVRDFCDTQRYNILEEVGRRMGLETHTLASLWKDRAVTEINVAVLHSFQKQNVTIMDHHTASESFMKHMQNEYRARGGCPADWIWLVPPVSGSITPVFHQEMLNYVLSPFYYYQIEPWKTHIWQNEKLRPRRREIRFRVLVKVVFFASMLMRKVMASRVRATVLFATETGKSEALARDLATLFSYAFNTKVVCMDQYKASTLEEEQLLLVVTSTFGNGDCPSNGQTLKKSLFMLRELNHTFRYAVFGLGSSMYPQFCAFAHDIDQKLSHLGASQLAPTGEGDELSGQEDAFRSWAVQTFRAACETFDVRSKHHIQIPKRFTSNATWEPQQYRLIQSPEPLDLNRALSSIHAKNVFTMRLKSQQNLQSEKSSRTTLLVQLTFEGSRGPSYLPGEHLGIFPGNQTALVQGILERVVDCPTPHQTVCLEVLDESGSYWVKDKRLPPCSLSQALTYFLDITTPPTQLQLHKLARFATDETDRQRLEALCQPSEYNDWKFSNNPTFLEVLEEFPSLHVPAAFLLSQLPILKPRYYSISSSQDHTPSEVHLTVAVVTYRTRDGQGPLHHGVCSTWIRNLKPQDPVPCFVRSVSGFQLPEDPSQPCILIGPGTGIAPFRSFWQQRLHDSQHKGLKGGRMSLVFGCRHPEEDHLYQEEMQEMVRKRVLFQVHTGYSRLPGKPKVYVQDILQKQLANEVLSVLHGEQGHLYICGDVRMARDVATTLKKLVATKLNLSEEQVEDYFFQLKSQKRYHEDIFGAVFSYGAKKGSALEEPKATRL
The experiment in a line: Tested for inhibition of mouse inducible nitric oxide synthase.
Molecule `CC(=N)NCCCC[C@@H](N)C(=O)O` had an IC50 of 336 µM.
The same measure, in the same setting: as for `CC(=N)NCCCCCC(N)C(=O)O` (racemic), the figure is 73 µM; as for `CC(=N)NCCCC[C@H](N)C(=O)O` [L-NIL], 3.3 µM.
On the same count and under the same terms, as for `CC(=N)NCCC[C@H](N)C(=O)O` [L-NIO], the figure is 3.9 µM; as for `N=C(NCCC[C@H](N)C(=O)O)N[N+](=O)[O-]` [NITROARGININE], 0.5 µM.

System in the next experiment: not listed separately
In words: Selectivity is the ratio of IC50 of mouse inducible NOS and Rat brain constitutive NOS.
Take `CC(=N)NCCCC[C@@H](N)C(=O)O`: the Selectivity was 8.
On the same count and under the same terms, as for `CC(=N)NCCCCCC(N)C(=O)O` (racemic), the figure is 11; as for `CC(=N)NCCCC[C@H](N)C(=O)O` [L-NIL], 28.
